According to ChEMBL document CHEMBL5230136, “A review: Biologically active 3,4-heterocycle-fused coumarins” (Eur J Med Chem, 2021):
Values after ≈ are worked out from the molar mass of the structure shown. Values belong to the compound of their own block, whether it stands above or below them.

Assays:
Candida albicans [1] = test: Antifungal activity against Candida albicans assessed as reduction in fungal growth; assay type: functional
Staphylococcus aureus [2] = test: Antibacterial activity against Staphylococcus aureus assessed as zone of inhibition at 20 mg/ml; assay type: functional; details: read-out: IZ
Bacillus cereus = test: Antibacterial activity against Bacillus cereus assessed as zone of inhibition at 20 mg/ml; assay type: functional; details: read-out: IZ
Escherichia coli [3] = test: Antibacterial activity against Escherichia coli assessed as zone of inhibition at 20 mg/ml; assay type: functional; details: read-out: IZ
Pseudomonas aeruginosa = test: Antibacterial activity against Pseudomonas aeruginosa assessed as zone of inhibition at 20 mg/ml; assay type: functional; details: read-out: IZ
Serratia marcescens = test: Antibacterial activity against Serratia marcescens assessed as zone of inhibition at 20 mg/ml; assay type: functional; details: read-out: IZ
Micrococcus luteus = test: Antibacterial activity against Micrococcus luteus assessed as zone of inhibition at 20 mg/ml; assay type: functional; details: read-out: IZ
Candida albicans [4] = test: Antifungal activity against Candida albicans assessed as zone of inhibition at 20 mg/ml; assay type: functional; details: read-out: IZ
Trichophyton rubrum = test: Antifungal activity against Trichophyton rubrum assessed as zone of inhibition at 20 mg/ml; assay type: functional; details: read-out: IZ
Aspergillus flavus = test: Antifungal activity against Aspergillus flavus assessed as zone of inhibition at 20 mg/ml; assay type: functional; details: read-out: IZ
Fusarium oxysporum [5] = test: Antifungal activity against Fusarium oxysporum assessed as zone of inhibition at 20 mg/ml; assay type: functional; details: read-out: IZ
Scopulariopsis = test: Antifungal activity against Scopulariopsis assessed as zone of inhibition at 20 mg/ml; assay type: functional; details: read-out: IZ
Geotrichum candidum [6] = test: Antifungal activity against Geotrichum candidum assessed as zone of inhibition at 20 mg/ml; assay type: functional; details: read-out: IZ
Geotrichum candidum [7] = test: Antimicrobial activity against Geotrichum candidum assessed as zone of inhibition at 50 uM; assay type: functional; details: read-out: IZ
[8] = molecular target: Dual specificity tyrosine-phosphorylation-regulated kinase 1A (Homo sapiens, UniProt Q13627); test: Inhibition of DYRK1A (unknown origin)
Staphylococcus aureus [9] = test: Antibacterial activity against Staphylococcus aureus by dilution assay; assay type: functional
Staphylococcus simulans = test: Antibacterial activity against Staphylococcus simulans assessed as zone of inhibition at 20 mg/ml; assay type: functional; details: read-out: IZ
Candida albicans [10] = test: […] activity against Candida albicans assessed as zone of inhibition at 20 mg/ml; assay type: functional; details: read-out: IZ
MES-SA = test: Cytotoxicity against human MES-SA cells assessed as reduction in cell viability incubated for 72 hrs by MTT assay; assay type: functional, cell-based
MCF7 [11] = test: Antiproliferative activity against human MCF7 cells assessed as inhibition of cell proliferation measured after 96 hrs by SRB assay; assay type: functional, cell-based; details: MCF7, 96 h
[12] = Antioxidant activity assessed as FRAP radical activity by FRAP assay; assay type: functional
Escherichia coli [13] = test: Antibacterial activity against Escherichia coli assessed as bacterial growth inhibition; assay type: functional
MCF7 [14] = test: Inhibition of CKII in human MCF7 cells at 50 uM assessed as inhibition; assay type: cell-based
HCT-116 = test: Inhibition of CKII in human HCT-116 cells at 50 uM assessed as inhibition; assay type: cell-based
Staphylococcus aureus [15] = test: Antibacterial activity against Staphylococcus aureus ATCC 29213 assessed as reduction in bacterial growth; assay type: functional
L1210 = test: Cytotoxicity against […] cells assessed as reversal of multi drug resistance at 1 uM; assay type: functional, cell-based; details: Mus musculus
HCT-116/VM46 [16] = test: Anticancer activity against Multi drug resistant human HCT-116/VM46 cells assessed as inhibition of cell growth; assay type: functional, cell-based
HCT-116/VM46 [17] = test: cells; details: Homo sapiens
MCF7 [18] = test: Cytotoxicity against human MCF7 cells […] by MTT reduction assay; assay type: functional, cell-based
A549 [19] = test: Anticancer activity against human A549 cells assessed as reduction in cell viability; assay type: functional, cell-based
HeLa = test: cells; details: Homo sapiens
Description: Cytotoxicity against human HeLa cells at 50 uM by MTT reduction assay

K562 = test: cells; details: Homo sapiens
Description: Cytotoxicity against human K562 cells at 50 uM by MTT reduction assay

LS180 = test: cells; details: Homo sapiens
Description: Cytotoxicity against human LS180 cells at 50 uM by MTT reduction assay

Fusarium oxysporum [20] = test: Antifungal activity against Fusarium oxysporum assessed as zone of inhibition at 50 uM; assay type: functional; details: read-out: IZ
[21] = molecular target: Dopamine receptors; D2 & D4 (Homo sapiens, UniProt P14416+P21917); test: Binding affinity to human D2/D4 receptor assessed as inhibition constant; assay type: protein assay
D(4) dopamine receptor = D(4) dopamine receptor (Homo sapiens, UniProt P21917); test: Binding affinity to D4 receptor (unknown origin) assessed as inhibition constant
Chain of D(4) dopamine receptor (P21917 whole entry): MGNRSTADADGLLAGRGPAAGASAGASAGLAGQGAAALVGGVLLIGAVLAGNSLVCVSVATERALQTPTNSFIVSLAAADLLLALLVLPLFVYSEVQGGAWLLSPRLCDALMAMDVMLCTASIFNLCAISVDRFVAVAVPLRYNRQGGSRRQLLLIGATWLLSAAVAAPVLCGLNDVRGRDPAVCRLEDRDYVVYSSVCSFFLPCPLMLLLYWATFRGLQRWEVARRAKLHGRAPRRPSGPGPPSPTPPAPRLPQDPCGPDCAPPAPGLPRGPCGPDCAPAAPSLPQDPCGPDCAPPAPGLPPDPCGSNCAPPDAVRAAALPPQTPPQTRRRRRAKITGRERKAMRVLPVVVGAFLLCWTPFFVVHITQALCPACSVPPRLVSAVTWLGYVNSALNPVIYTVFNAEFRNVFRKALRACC

Botrytis cinerea [22] = test: Antifungal activity against Botrytis cinerea; assay type: functional, organism-based
Colletotrichum camelliae = test: Antifungal activity against Colletotrichum camelliae; assay type: functional, organism-based
Botrytis cinerea [23] = test: Antifungal activity against Botrytis cinerea assessed as inhibition of fungal growth incubated for 24 hrs by standard broth dilution assay; assay type: functional, organism-based
[24] = Antioxidant activity assessed as DPPH radical scavenging activity; assay type: functional
HepG2 = test: Anticancer activity against human HepG2 cells by MTT assay; assay type: functional, cell-based
Salmonella enterica = test: Antibacterial activity against Salmonella enterica assessed as bacterial growth inhibition by broth dilution method; assay type: functional
[25] = Cytotoxicity against human MRC5 cells assessed as reduction in cell viability measured after 72 hrs by MTT assay; assay type: toxicity, cell-based
A549 [26] = test: Anticancer activity against human A549 cells assessed as inhibition of cell proliferation measured after 48 hrs by MTT assay; assay type: functional, cell-based; details: A549, 48 h

- MIC (Candida albicans [1]): 1000 µg/mL (≈ 2590 µM)
Structure (SMILES): COc1cccc2cc(-c3ccc4c(=O)oc5c(C)cccc5c4n3)c(=O)oc12

Structure (SMILES): CCOC(=O)c1sc2c(c1NC(=O)CNc1ccc(S(N)(=O)=O)cc1)c(=O)oc1ccccc12
- zone of inhibition at 20000 µg/mL (Staphylococcus aureus [2]): 9 mm
- zone of inhibition at 20000 µg/mL (Bacillus cereus): 0 mm
- zone of inhibition at 20000 µg/mL (Escherichia coli [3]): 9 mm
- zone of inhibition at 20000 µg/mL (Pseudomonas aeruginosa): 0 mm
- zone of inhibition at 20000 µg/mL (Serratia marcescens): 0 mm
- zone of inhibition at 20000 µg/mL (Micrococcus luteus): 0 mm
- zone of inhibition at 20000 µg/mL (Candida albicans [4]): 0 mm
- zone of inhibition at 20000 µg/mL (Trichophyton rubrum): 0 mm
- zone of inhibition at 20000 µg/mL (Aspergillus flavus): 0 mm
- zone of inhibition at 20000 µg/mL (Fusarium oxysporum [5]): 0 mm
- zone of inhibition at 20000 µg/mL (Scopulariopsis): 0 mm
- zone of inhibition at 20000 µg/mL (Geotrichum candidum [6]): 10 mm
- zone of inhibition at 50 µM (Geotrichum candidum [7]): 10 mm

- IC50 [8]: 0.0003 µM
Structure (SMILES): O=c1oc2cc(O)ccc2c2c1[nH]c1ccc(O)cc12

- MIC (Staphylococcus aureus [9]): 100 µM (≈ 20 µg/mL)
Structure (SMILES): Cc1cccc2c1oc(=O)c1cn[nH]c12
- zone of inhibition at 20000 µg/mL (Staphylococcus aureus [2]): 14 mm
- zone of inhibition at 20000 µg/mL (Staphylococcus simulans): 14 mm
- zone of inhibition at 20000 µg/mL (Candida albicans [10]): 14 mm

Structure (SMILES): O=[Se](O)O [SODIUM SELENITE]
- IC50 (MES-SA): 29 µM

- IC50 (MCF7 [11]): 18 µM
Structure (SMILES): O=c1oc2ccccc2c2[se]c(CN3CCOCC3)c(Nc3ccncc3)c12

Structure (SMILES): O=c1c(O)c(-c2ccc(O)c(O)c2)oc2cc(O)cc(O)c12 [QUERCETIN]
- IC50 [12]: 53900 µM

- MIC (Escherichia coli [13]): 105 µM (≈ 36.5 µg/mL)
Structure (SMILES): Cc1cccc2c1oc(=O)c1cc(NC(=O)c3ccccc3)c(=O)oc12

Structure (SMILES): O=c1oc2cc(O)ccc2c2oc3cc(O)ccc3c12
- inhibition (MCF7 [14]): 50%
- inhibition (HCT-116): 30%

- MIC (Staphylococcus aureus [15]): 62.5 µM (≈ 26.6 µg/mL)
Structure (SMILES): O=c1oc2ccc3ccccc3c2cc1-c1ccc2c(=O)oc3ccc(Cl)cc3c2n1

- IC50 (HCT-116/VM46 [16]): 40 µM
- IC50 (HCT-116/VM46 [17]): 40 µM
Structure (SMILES): COc1ccc(CCn2cc(-c3ccc(OC)c(OC)c3)c3c4cc(OC)c(OC)cc4oc(=O)c32)cc1OC
- IC50 (L1210): 50 µM

- IC50 (A549 [19]): 0.14 µM
- IC50 (HeLa): 29.8 µM
- IC50 (K562): 25.4 µM
- IC50 (LS180): > 100 µM
Structure (SMILES): O=C1CCCc2nc3c(c(-c4ccccc4[N+](=O)[O-])c21)c(=O)oc1ccccc13
- IC50 (MCF7 [18]): 58.6 µM

Structure (SMILES): CCOC(=O)c1sc2c(c1N)c(=O)oc1ccccc12
- zone of inhibition at 20000 µg/mL (Staphylococcus aureus [2]): 9 mm
- zone of inhibition at 20000 µg/mL (Bacillus cereus): 0 mm
- zone of inhibition at 20000 µg/mL (Escherichia coli [3]): 0 mm
- zone of inhibition at 20000 µg/mL (Pseudomonas aeruginosa): 10 mm
- zone of inhibition at 20000 µg/mL (Serratia marcescens): 8 mm
- zone of inhibition at 20000 µg/mL (Micrococcus luteus): 8 mm
- zone of inhibition at 20000 µg/mL (Candida albicans [4]): 13 mm
- zone of inhibition at 20000 µg/mL (Trichophyton rubrum): 0 mm
- zone of inhibition at 20000 µg/mL (Aspergillus flavus): 0 mm
- zone of inhibition at 20000 µg/mL (Fusarium oxysporum [5]): 0 mm
- zone of inhibition at 20000 µg/mL (Scopulariopsis): 8 mm
- zone of inhibition at 20000 µg/mL (Geotrichum candidum [6]): 0 mm
- zone of inhibition at 50 µM (Fusarium oxysporum [20]): 16 mm

- Ki [21]: 0.078 µM
- Ki (D(4) dopamine receptor): 0.0015 µM
Structure (SMILES): COc1ccc2c3c(c(=O)oc2c1)CN(Cc1ccncc1)CC3

- EC50 (Botrytis cinerea [22]): 1.72 µg/mL (≈ 6.32 µM)
- EC50 (Colletotrichum camelliae): 6.02 µg/mL (≈ 22.1 µM)
Structure (SMILES): Cc1oc2c(c1C)c(=O)oc1cc(OC(C)C)ccc12
- EC50 (Botrytis cinerea [23]): 1.72 µM

Structure (SMILES): O=c1oc2ccccc2c2c1C(c1ccc(Br)cc1O)SCCN2 (stereo in doubt; 203c)
- IC50 [24]: 290 µM
- IC50 (HepG2): 290 µM
- IC50 [12]: 0.186 µM

- MIC (Salmonella enterica): 50 µM (≈ 12.8 µg/mL)
Structure (SMILES): CCc1c(C)c(=O)oc2c1c(=O)oc1ccccc12

Structure (SMILES): O=c1oc2ccccc2c2c1C(c1ccc(Br)cc1O)SCCN2 (stereo in doubt; 200)
- IC50 (HepG2): 58 µM

Structure (SMILES): COc1cc2c(cc1O)oc(=O)c1c2c(-c2ccc(OC)c(OC)c2)c2c3cc(OC)c(O)cc3ccn21
- IC50 at 72 h [25]: > 97 µM

- IC50 (A549 [26]): 0.05 µM
Structure (SMILES): Cc1ccc2c(c1)C(c1ccccc1)c1c(c3ccccc3oc1=O)N2 (centres undefined)
